Test results published in PubChem BioAssay AID1259407 (Chemical Carcinogenesis Research Information System (CCRIS), 2018).
Activity calls are given as the source filed them. No rule for the calls is given here.

Tested on: CCRIS mutagenicity, Ames/micronucleus/aberration tests
Assay: CCRIS mutagenicity studies
[1] = Test System: AMES SALMONELLA TYPHIMURIUM, Strain/Indicator: TA98, Metabolic Activation: NONE, Method: STANDARD PLATE
[2] = Test System: AMES SALMONELLA TYPHIMURIUM, Strain/Indicator: TA100, Metabolic Activation: NONE, Method: STANDARD PLATE
[3] = Test System: AMES SALMONELLA TYPHIMURIUM, Strain/Indicator: TA98, Metabolic Activation: NONE, Method: PREINCUBATION

Measured: mutagenic call

Nc1ccc(N=Nc2ccc(-c3ccc(N=Nc4c(S(=O)(=O)O)cc5c(c4N)C(=O)/C(=N/Nc4ccccc4)C(S(=O)(=O)O)=C5)cc3)cc2)c(N)c1
active: Test System: AMES SALMONELLA TYPHIMURIUM, Strain/Indicator: SV50, Metabolic Activation: HAMSTER, LIVER, S-9, Method: PREINCUBATION (PRIVAL METHOD) active; positive | Test System: AMES SALMONELLA TYPHIMURIUM, Strain/Indicator: SV50, Metabolic Activation: RAT, LIVER, S-9, AROCLOR 1254, Method: PREINCUBATION (PRIVAL METHOD) active; positive | Test System: AMES SALMONELLA TYPHIMURIUM, Strain/Indicator: TA98, Metabolic Activation: HAMSTER, LIVER, S-9, Method: PREINCUBATION (PRIVAL METHOD) active; positive | Test System: AMES SALMONELLA TYPHIMURIUM, Strain/Indicator: TA98, Metabolic Activation: RAT, LIVER, S-9, AROCLOR 1254, Method: PREINCUBATION (PRIVAL METHOD) active; positive | Test System: AMES SALMONELLA TYPHIMURIUM, Strain/Indicator: TA1538, Metabolic Activation: RAT, LIVER, S-9, AROCLOR 1254, Method: STANDARD PLATE active; positive | Test System: Ames Salmonella typhimurium, Strain/Indicator: TA98, Metabolic Activation: Rat, Liver, S-9, Sodium phenobarbitone, Method: Preincubation active; positive, test conducted under both aerobic and anaerobic conditions. | Test System: Ames Salmonella typhimurium, Strain/Indicator: TA1538, Metabolic Activation: Rat, Liver, S-9, Sodium phenobarbitone, Method: Preincubation active; positive, test conducted under both aerobic and anaerobic conditions.
inactive: [1] inactive; negative | Test System: AMES SALMONELLA TYPHIMURIUM, Strain/Indicator: TA98, Metabolic Activation: RAT, LIVER, S-9, PHENOBARBITAL, Method: STANDARD PLATE inactive; negative | [2] inactive; negative | Test System: AMES SALMONELLA TYPHIMURIUM, Strain/Indicator: TA100, Metabolic Activation: RAT, LIVER, S-9, PHENOBARBITAL, Method: STANDARD PLATE inactive; negative | Test System: AMES SALMONELLA TYPHIMURIUM, Strain/Indicator: TA1538, Metabolic Activation: NONE, Method: STANDARD PLATE inactive; negative

Oc1ccc2ccc3[nH]c4ccc5ccccc5c4c3c2c1
inactive: Test System: AMES SALMONELLA TYPHIMURIUM, Strain/Indicator: TM677, Metabolic Activation: NONE, Method: PREINCUBATION inactive; negative
active: [1] active; positive | Test System: AMES SALMONELLA TYPHIMURIUM, Strain/Indicator: TA98, Metabolic Activation: RAT, LIVER, S-9, 3-METHYLCHOLANTHRENE, Method: STANDARD PLATE active; positive | [2] active; positive | Test System: AMES SALMONELLA TYPHIMURIUM, Strain/Indicator: TA100, Metabolic Activation: RAT, LIVER, S-9, 3-METHYLCHOLANTHRENE, Method: STANDARD PLATE active; positive | Test System: AMES SALMONELLA TYPHIMURIUM, Strain/Indicator: TM677, Metabolic Activation: RAT, LIVER, S-9, 3-METHYLCHOLANTHRENE (1%), Method: PREINCUBATION active; positive | Test System: AMES SALMONELLA TYPHIMURIUM, Strain/Indicator: TM677, Metabolic Activation: RAT, LIVER, S-9, 3-METHYLCHOLANTHRENE (10%), Method: PREINCUBATION active; positive | Test System: AMES SALMONELLA TYPHIMURIUM, Strain/Indicator: TM677, Metabolic Activation: RAT, LIVER, S-9, AROCLOR 1254 (10%), Method: PREINCUBATION active; positive

Nc1nc(F)nc2c1ncn2[C@@H]1O[C@H](CO)[C@@H](O)[C@@H]1O
active: Test System: CHINESE HAMSTER OVARY, Strain/Indicator: CHO/6-THIOGUANINE, Metabolic Activation: NONE active; positive

O=S(=O)(O)OCc1c2ccccc2cc2c1ccc1ccccc12
active: [3] active; positive

CC(C)OC(=O)C=Cc1ccc([N+](=O)[O-])o1
active: [3] active; positive

O=C(O)c1cc([N+](=O)[O-])cc([N+](=O)[O-])c1
active: [3] active; positive | Test System: AMES SALMONELLA TYPHIMURIUM, Strain/Indicator: TA98, Metabolic Activation: RAT, LIVER, S-9, KANECHLOR 500, Method: PREINCUBATION active; positive | Test System: AMES SALMONELLA TYPHIMURIUM, Strain/Indicator: TA100, Metabolic Activation: NONE, Method: PREINCUBATION active; positive | Test System: AMES SALMONELLA TYPHIMURIUM, Strain/Indicator: TA100, Metabolic Activation: RAT, LIVER, S-9, KANECHLOR 500, Method: PREINCUBATION active; positive
